According to paper PMC4231793 (Biology of blood and marrow transplantation : journal of …, 2012):
Several values for one entry are separate records, joined by “and”; a condition that tells them apart may be missing. Equal values may be shown once. Read-outs that look alike come from different tables or passages of the source.

What was measured:
[1] = Noncompartmental pharmacokinetic analysis of whole-blood sirolimus; assay type: in vivo, human; conditions: for concentration at 0 h: Co (trough concentration prior to oral dosing)
[2] = Population pharmacokinetic analysis; assay type: in vivo, human
[3] = assay type: in vivo, human
[4] = cited from earlier work; for AUC0–24: ref [9],[14]; for Half-life: ref [9]; for t1/2: pediatric renal transplant patients, every-12-hour schedule, calcineurin inhibitor-free protocol, ref [8]
[5] = ref [10], cited from earlier work
[6] = tested on: CYP3A4; conditions: compared with itraconazole, voriconazole, and posaconazole; ref [7],[23]; cited from earlier work
[7] = human, whole blood, oral, 2.5 mg/m^2/day
[8] = patients receiving concomitant fluconazole (i.v. or oral)
[9] = population estimate ± standard error
[10] = at 180 days, sirolimus, tacrolimus and methotrexate GVHD prophylaxis
[11] = of 63 subjects in the clinical study, sirolimus with tacrolimus

SMILES: CO[C@H]1C[C@@H]2CC[C@@H](C)[C@@](O)(O2)C(=O)C(=O)N2CCCC[C@H]2C(=O)O[C@H]([C@H](C)C[C@@H]2CC[C@@H](O)[C@H](OC)C2)CC(=O)[C@H](C)/C=C(\C)[C@@H](O)[C@@H](OC)C(=O)[C@H](C)C[C@H](C)/C=C/C=C/C=C/1C [sirolimus, Sirolimus]
- concentration at 24 h ([1]; human, whole blood, iv, 2.5 mg/m^2/day, C24 trough concentration, patients who developed grade III–IV aGVHD (n = 10), mean ± SD): 6.1 ± 2.9 ng/mL
- AUC(0-t) [1, 7]: 401 ± 316 ng·h/mL
- CL/F [1, 7]: 3.17 mL/min/kg
- Tmax [1, 7]: 3.3 ± 1.6 h
- Vd/F [1, 7]: 5.78 ± 5.7 L/kg
- concentration at 24 h ([1]; human, whole blood, oral, 2.5 mg/m^2/day, C24 (trough concentration at 24 hours after oral dosing), i.v. Fluconazole (n = 16), mean ± SD (range)): 10 ng/mL
- concentration at 24 h ([1]; human, whole blood, oral, 2.5 mg/m^2/day, C24 trough concentration, patients with grade 0-II aGVHD (n = 22), mean ± SD): 9.4 ± 5.5 ng/mL
- concentration at 0 h ([1]; human, whole blood, oral, 2.5 mg/m^2/day, i.v. Fluconazole (n = 16), mean ± SD (range)): 8 ng/mL
- Half-life ([1]; human, whole blood, oral, 2.5 mg/m^2/day, Mean t1/2, patients age ≤12 years): 21.8 h
- concentration at 24 h ([1]; human, whole blood, po, 2.5 mg/m^2/day, C24 (trough concentration at 24 hours after oral dosing), All (n = 33), mean ± SD (range)): 9.1 ± 5.3 ng/mL
- concentration at 24 h ([1]; human, whole blood, po, 2.5 mg/m^2/day, C24 (trough concentration at 24 hours after oral dosing), No Fluconazole (n = 11), mean ± SD (range)): 8 ng/mL
- concentration at 24 h ([1]; human, whole blood, po, 2.5 mg/m^2/day, C24 (trough concentration at 24 hours after oral dosing), Oral Fluconazole (n = 6), mean ± SD (range)): 8.6 ng/mL
- concentration at 0 h ([1]; human, whole blood, po, 2.5 mg/m^2/day, All (n = 33), mean ± SD (range)): 8 ± 4.6 ng/mL
- concentration at 0 h ([1]; human, whole blood, po, 2.5 mg/m^2/day, No Fluconazole (n = 11), mean ± SD (range)): 6.8 ng/mL
- concentration at 0 h ([1]; human, whole blood, po, 2.5 mg/m^2/day, Oral Fluconazole (n = 6), mean ± SD (range)): 11 ng/mL
- Difference between trough concentrations (C24 - C0)/C24, average ([1]; n = 33, not significantly greater than 0 (P = .75)): 10.3%
- Dose-normalized C24 ([1]; patients not receiving fluconazole): 2.5 ± 1.7 ng/mL/mg and 2.51 ± 1.72 ng/mL/mg
- Dose-normalized C0 [1, 8]: 3.9 ± 2.5 ng/mL/mg and 3.93 ± 2.5 ng/mL/mg
- Dose-normalized C24 [1, 8]: 4.8 ± 3.3 ng/mL/mg and 4.8 ± 3.34 ng/mL/mg
- C24 trough concentration ([1]; patients who developed grade III–IV aGVHD (n = 10), mean ± SD): 6.11 ± 2.89 ng/mL
- C24 trough concentration ([1]; patients with grade 0-II aGVHD (n = 22), mean ± SD): 9.42 ± 5.52 ng/mL
- Clearance (Cl/F), population estimate ([2]; 37 patients, 333 concentrations, estimate ± standard error): 6.66 ± 1.10 L/h
- CL/F [2, 7]: 2.83 mL/min/kg
- Vd [2, 7]: 26.9 ± 7.7 L
- Absorption rate constant (ka) [2, 9]: 0.0535 ± 0.0104 h⁻¹
- Intercompartment clearance (Q) [2, 9]: 4.62 ± 2.00 L/h
- Volume of distribution of peripheral compartment (Vp) [2, 9]: 630 ± 171 L
- Share of sirolimus whole-blood concentrations >12 ng/mL ([3]; above target range): 12%
- Share of sirolimus whole-blood concentrations <3 ng/mL ([3]; below target range): 9%
- Share of sirolimus whole-blood (trough) concentrations within target range ([3]; target range 3–12 ng/mL, with therapeutic drug monitoring): 79%
- AUC0–24 ([4]; adult kidney transplant recipients): 173 ± 50 ng·h/mL
- Half-life ([4]; pediatric liver transplant recipients on sirolimus and tacrolimus): 21.2 ± 14.1 h
- AUC0–24 ([4]; pediatric liver transplant recipients): 168.3 ± 86.5 ng·h/mL
- t1/2 ([4]; 1 month posttransplantation): 9.7 h
- t1/2 ([4]; 3 months posttransplantation): 10.8 h
- AUC0–24 ([4]; pediatric small bowel transplant recipients): 177.4 ± 72.1 ng·h/mL
- Half-life ([4]; small bowel transplant recipients on sirolimus and tacrolimus): 19.3 ± 5.6 h
- Cumulative incidence of grade III–IV aGVHD [5, 10]: 21%
- Cumulative incidence of grade II–IV aGVHD [5, 10]: 38%
- Subjects who developed thrombotic microangiopathy [5, 11]: 3 subjects
- Subjects who developed veno-occlusive disease of liver [5, 11]: 7 subjects

SMILES: OC(Cn1cncn1)(Cn1cncn1)c1ccc(F)cc1F [Fluconazole]
- In vitro CYP3A4 inhibition, rank among azoles [6]: weakest in vitro inhibitor of CYP3A4
